These are literature values, as cited in patent US20260248820A1, “USES OF HYDROGENATED CANNABIDIOL (H4CBD) AND ADVANCED METABOLIC SYNDROME” (The Regents of the University of California, priority 2022, published 2026).

Molecules are shown by their SMILES. A value given as a limit tells only on which side of the number the result lay.

For one data set, the system named is PTZ-induced seizure. Particulars: rats; cited from earlier work.
The next data set relates to rodents. The note with it: cited from earlier work.
In data set [1] the test system is endocannabinoid receptors. The note with it: cited from earlier work.
Data set [2] relates to diet-induced obese (DIO) and non-obese diabetic mice. The note with it: cited from earlier work.
For data set [3] the following is noted: clinical; cited from earlier work.
For data set [4] the following is noted: rats without underlying metabolic dysfunction; cited from earlier work.

In the case of `CCCCCc1cc(O)c([C@@H]2C=C(C)CC[C@H]2C(C)C)c(O)c1` [H2CBD, dihydrocannabidiol], the “Reduction of PTZ-induced seizure frequency and severity” value in the data set on PTZ-induced seizure is reported as “equal effectiveness to that of CBD”.
Consider `C=C(C)[C@@H]1CCC(C)=C[C@H]1c1c(O)cc(CCCCC)cc1O` [CBD, Cannabidiol], for which the Documented toxicity with rodents is on record as greater than 600 mg/kg. The “Affinity for the endocannabinoid receptors responsible for cannabis intoxication” value in data set [1] is given as “little affinity”. For the same compound, the Incidence of diabetes entry in data set [2] is “reduced the incidence of diabetes”. Besides, the “Effects of high doses administered clinically” value in data set [3] is “anorexic and diarrheal effects”. The Body mass gain entry in data set [4] was “inhibit body mass gain”.
